What is called IC50 is the concentration needed to halve the response being measured.

Consider 39 compounds from patent US11970448B2, “Monomers capable of dimerizing in an aqueous solution, and methods of using same” (CORNELL UNIVERSITY, priority 2011, dated 2024).

The target of the experiment is T1, recominbant human tryptase, beta, from lung (Homo sapiens, UniProt P20231).
T1 construct: purchased Promega or Enzo Life Sciences G5631 or BML-SE418
The experiment can be described thus: Inhibition of tryptase activity by monomers and multimers (Boc-Gln-Ala-Arg-AMC fluorescence). The settings on record: monomers against tryptase. In kind it is biochemical. The procedure:
Stock solutions of recominbant human tryptase, beta, from lung (Promega: catalog number G5631, or Enzo Life Sciences: catalog number BML-SE418) were made at 30 μM, in solution with 5 μM heparin sulfate and 1 M NaCl. Monomer tryptase inhibitor stock solutions were made at 50 mM in DMSO. Test substance plates were made at 1.2× the final concentration in assay buffer (50 mM HEPES, 150 mM NaCl, 100 μM EDTA, pH 7.4, 0.02% Tween-20). A final concentration of 1 nM tryptase was used. When required, test substances were diluted in water immediately before use in 10-fold serial dilutions. After the indicated incubation time, the test subtance-tryptase solution at 1.2× concentration, was diluted into assay buffer containing a final concentration of 200 μM N-tert-butoxycarbonyl-Gln-Ala-Arg-AMC HBr [AMC=7-amino-4-methylcoumarin] (Boc-Gln-Ala-Arg-AMC; Enzo Life Sciences: catalog number BML-P237) to a final volume of 50 μl in black opaque round bottom 96 well plates (Corning, catalog number 3792). The release of fluorescent AMC was immediately measured every 30 seconds over 15-30 minutes at an excitation wavelength of 367 nm, monitoring emission at 468 nm on a Spectramax M5 (Molecular Devices) microplate reader. The Softmax Pro (Molecular Devices) and Graphpad prism software were used to determine Vmax, and concentration-response curve IC50s, respectively.

Where [1] appears, read: read-out: IC50 range group of additional monomers (boronic acid, benzooxaborole, ligands).
[2] abbreviates: Table 5, read-out: Monomer IC50 range.
The mark [3] stands for this setting: entry marked (1:10), read-out: IC50 range group of additional monomers marked (1:10).

Where a name gives a salt, the structure may show the parent alone. Read-outs that look alike come from different tables or passages of the source.

T1 sequence (P20231 31-275): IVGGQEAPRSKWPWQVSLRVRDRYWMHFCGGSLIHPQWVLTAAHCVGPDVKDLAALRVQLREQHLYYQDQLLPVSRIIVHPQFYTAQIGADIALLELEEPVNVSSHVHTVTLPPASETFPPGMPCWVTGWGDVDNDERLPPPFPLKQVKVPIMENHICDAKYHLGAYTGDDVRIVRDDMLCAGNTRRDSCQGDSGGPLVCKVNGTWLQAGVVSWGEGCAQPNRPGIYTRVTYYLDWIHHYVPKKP

Turning to `CN(Cc1ccccc1B(O)O)c1cccc2c(C(=O)N3CCC(c4cccc(CN)c4)CC3)cccc12` [T143], the IC50 under setting [1] was in the range of 1000 to 10000 nM.

On to `NCc1ccc2c(c1)C1(CCN(C(=O)c3cccc(-c4cc(F)cc(B(O)O)c4)c3)CC1)CO2` [T132SPIRO], for which the IC50 under setting [1] is 1000 to 10000 nM.

For `NCc1cccc(C2CCN(C(=O)c3ccc(O)c(C(=O)NOc4ccccc4)c3)CC2)c1` [T92OPH], the IC50 under setting [1] is 1000 to 10000 nM.

Consider `CN(Cc1ccccc1B(O)O)c1ccc(C(=O)N2CCC(c3cccc(CN)c3)CC2)cc1` [T147], for which the IC50 under setting [1] is 1000 to 10000 nM.

For `NCc1ccc(C(=O)NCc2ccc(OCCC(=O)N3CC(=O)[C@@H](O)C3)cc2)cc1` [CF10, (S)-4-(aminomethyl)-N-(4-(3-(3-hydroxy-4-oxopyrrolidin-1-yl)-3-oxopropoxy)benzyl)benzamide hydrochloride], the IC50 under setting [2] was in the range of 10000 to 65000 nM.

For `NCc1cccc(C2CCN(C(=O)c3cccc4cc(CO)c(O)cc34)CC2)c1` [T44, (4-(3-(aminomethyl)phenyl)piperidin-1-yl)(7-hydroxy-6-(hydroxymethyl)naphthalen-1-yl)methanone], the IC50 reads like this: under setting [2], 1000 to 10000 nM; under setting [1], 1000 to 10000 nM.

As to `CONC(=O)c1ccc(CC(=O)N2CCC(c3cccc(CN)c3)CC2)cc1O` [T85 Å], under setting [3], the IC50 fell in the range of 0.1 to 1000 nM.

Take `NCc1cccc(C2CCN(C(=O)C3CC4CCC3C(O)C4O)CC2)c1` (racemic) [T142ENDOANTI, (±) endo (4-(3-(aminomethyl)phenyl)piperidin-1-yl)(-5,6-anti-dihydroxybicyclo[2.2.2]octan-2-yl)methanone]: the IC50 under setting [1] was 0.1 to 1000 nM.

Consider `NCc1cccc(C2CCN(C(=O)/C=C/c3ccc(O)c(C(N)=O)c3)CC2)c1` [T86, (E)-5-(3-(4-(3-(aminomethyl)phenyl)piperidin-1-yl)-3-oxoprop-1-enyl)-2-hydroxybenzamide], for which the IC50 under setting [2] is 1000 to 10000 nM and the IC50 under setting [1] was in the range of 1000 to 10000 nM.

As for `NCc1cccc(C2CCN(C(=O)/C=C/c3ccc(C4CC4)c(O)c3)CC2)c1` [T41CYCLO, (E)-1-(4-(3-(aminomethyl)phenyl)piperidin-1-yl)-3-(4-cyclopropyl-3-hydroxyphenyl)prop-2-en-1-one], under setting [2], the IC50 is 0.1 to 1000 nM.

For `NCc1ccc2c(c1)C1(CCN(C(=O)c3cccc(-c4ccc(F)c(B(O)O)c4)c3)CC1)CO2` [T131SPIRO], the IC50 under setting [1] is 0.1 to 1000 nM.

For the compound `N=C(N)c1ccc2c(c1)C1(CCN(C(=O)/C=C/c3ccc(B(O)O)cc3)CC1)CO2` [T33SPAM, (E)-4-(3-(5-carbamimidoyl-2H-spiro[benzofuran-3,4′-piperidine]-1′-yl)-3-oxoprop-1-enyl)phenylboronic acid], under setting [1], the IC50 lay in the range of 1000 to 10000 nM.

As for `NCc1cccc(C2CCN(C(=O)c3cccc(O)c3O)CC2)c1` [T28, (4-(3-(aminomethyl)phenyl)piperidin-1-yl)(2,3-dihydroxyphenyl)methanone], the IC50 under setting [2] was 1000 to 10000 nM and the IC50 under setting [1] lay in the range of 1000 to 10000 nM.

As to `CN(Cc1ccccc1B(O)O)c1cccc(C(=O)N2CCC(c3cccc(CN)c3)CC2)c1` [T146], under setting [1], the IC50 is 10000 to 65000 nM.

On to `CC1(O)CN(c2cccc(C(=O)N3CCC(c4cccc(CN)c4)CC3)c2)CC1(C)O` (centres unmarked) [T67, (4-(3-(aminomethyl)phenyl)piperidin-1-yl)(3-(3,4-dihydroxy-3,4-dimethylpyrrolidin-1-yl)phenyl)methanone], for which the IC50 reads like this: under setting [2], 0.1 to 1000 nM; under setting [1], 0.1 to 1000 nM.

Turning to `NCc1cccc(C2CCN(C(=O)/C=C/c3cccc(O)c3CO)CC2)c1` [T42], the IC50 is 1000 to 10000 nM under setting [2] and 1000 to 10000 nM under setting [1].

As to `NCc1cccc(C2CCN(C(=O)c3cc4cc(O)c(O)cc4oc3=O)CC2)c1` [T100], the IC50 lay in the range of 10000 to 65000 nM under setting [2] and 10000 to 65000 nM under setting [1].

For the compound `NCc1cccc(C2CCN(C(=O)c3cccc(OCC(=O)C4(O)CCC4)c3)CC2)c1` [T22, 2-(3-(4-(3-(aminomethyl)phenyl)piperidine-1-carbonyl)phenoxy)-1-(1-hydroxycyclobutyl)ethanone], under setting [2], the IC50 is 0.1 to 1000 nM.

Consider `NCc1cccc(C2CCN(C(=O)c3cccc(O)c3)CC2)c1` [T53B, (4-(3-(aminomethyl)phenyl)piperidin-1-yl)(3-hydroxyphenyl)methanone], for which the IC50 under setting [2] lay in the range of 1000 to 10000 nM.

`CONC(=O)c1cc(C(=O)N2CCC(c3cccc(CN)c3)CC2)ccc1O` [T92, 5-(4-(3-(aminomethyl)phenyl)piperidine-1-carbonyl)-2-hydroxy-N-methoxybenzamide]: the IC50 by setting is: under setting [2], 1000 to 10000 nM; under setting [1], 1000 to 10000 nM.

For `CC(C)(C)OC(=O)NCc1cccc(C2CCN(C(=O)c3cccc(NC(=O)C(O)C(C)(C)O)c3)CC2)c1` (centres unmarked) [T55D, tert-butyl 3-(1-(3-(2,3-dihydroxy-3-methylbutanamido)benzoyl)piperidin-4-yl)benzylcarbamate], the IC50 fell in the range of 0.1 to 1000 nM under setting [2] and 0.1 to 1000 nM under setting [3].

As to `CONC(=O)c1ccc(/C=C/C(=O)N2CCC(c3cccc(CN)c3)CC2)cc1O` [T76A, (E)-4-(3-(4-(3-(aminomethyl)phenyl)piperidin-1-yl)-3-oxoprop-1-enyl)-2-hydroxy-N-methoxybenzamide], the IC50 reads like this: under setting [2], 0.1 to 1000 nM; under setting [1], 0.1 to 1000 nM.

As to `NCc1cccc(C2CCN(C(=O)c3cc4c(B(O)O)cccc4[nH]3)CC2)c1` [T32, 2-(4-(3-(aminomethyl)phenyl)piperidine-1-carbonyl)-1H-indol-4-ylboronic acid], the IC50 lay within 1000 to 10000 nM under setting [2] and 1000 to 10000 nM under setting [1].

As to `NCc1ccc2c(c1)C1(CCN(C(=O)Cc3ccc(B(O)O)c(F)c3)CC1)CO2` [T54BASPIRO], the IC50 under setting [1] is 1000 to 10000 nM.

Consider `COc1ccc(C(=O)N2CCC(c3cccc(CN)c3)CC2)c(O)c1O` [T127], for which, under setting [1], the IC50 fell in the range of 1000 to 10000 nM.

For the compound `NCc1cccc(C2CCN(C(=O)c3cccc(NC(=O)c4ccc(O)c(O)c4)c3)CC2)c1` [T71, N-(3-(4-(3-(aminomethyl)phenyl)piperidine-1-carbonyl)phenyl)-3,4-dihydroxybenzamide], the IC50 was in the range of 0.1 to 1000 nM under setting [2] and 0.1 to 1000 nM under setting [1].

For the compound `NCc1cccc(C2CCN(C(=O)c3cccc(NC(=O)C4CC5CCC4C(O)C5O)c3)CC2)c1` (racemic) [T141EXOSYN, (±) exo-N-(3-(4-(3-(aminomethyl)phenyl)piperidine-1-carbonyl)phenyl)-5,6-syn-dihydroxybicyclo[2.2.2]octane-2-carboxamide.], the IC50 under setting [1] lay in the range of 1000 to 10000 nM.

Take `NCc1cccc(C2CCN(C(=O)C3CC4CC3C(O)C4O)CC2)c1` (racemic) [T140RACEENDO, (±) endo (4-(3-(aminomethyl)phenyl)piperidin-1-yl)-(5,6-syn-dihydroxybicyclo[2.2.1]heptan-2-yl)methanone]: the IC50 under setting [1] is 1000 to 10000 nM.

With `Cc1c(CC(=O)N2CCC(c3cccc(CN)c3)CC2)c(=O)oc2c(O)c(O)ccc12` [T101], the IC50 lay in the range of 0.1 to 1000 nM under setting [2] and 0.1 to 1000 nM under setting [1].

Regarding `NCc1cccc(C2CCN(C(=O)c3cccc(OCC(O)(C(=O)O)C4CCCC4)c3)CC2)c1` (centres unmarked) [T103, 3-(3-(4-(3-(aminomethyl)phenyl)piperidine-1-carbonyl)phenoxy)-2-cyclopentyl-2-hydroxypropanoic acid], the IC50 under setting [2] is 0.1 to 1000 nM and the IC50 under setting [3] was 0.1 to 1000 nM.

Turning to `NCc1cccc(C2CCN(C(=O)c3ccc(O)c(CO)c3)CC2)c1` [T65, (4-(3-(aminomethyl)phenyl)piperidin-1-yl)(4-hydroxy-3-(hydroxymethyl)phenyl)methanone], the IC50 lay in the range of 0.1 to 1000 nM under setting [2] and 0.1 to 1000 nM under setting [1].

In the case of `COc1cc(C(=O)N2CCC(c3cccc(CN)c3)CC2)cc(O)c1O` [T104], the half-inhibitory concentration (IC50) under setting [1] lay within 0.1 to 1000 nM.

Regarding `NCc1cccc(C2CCN(C(=O)c3cc4ccc(B(O)O)cc4[nH]3)CC2)c1` [T59, 2-(4-(3-(aminomethyl)phenyl)piperidine-1-carbonyl)-1H-indol-6-ylboronic acid], the IC50 reads like this: under setting [2], 1000 to 10000 nM; under setting [1], 1000 to 10000 nM.

As for `COc1cc(C(=O)N2CCC3(CC2)COc2ccc(CN)cc23)cc(O)c1O` [T104SPIRO], the IC50 under setting [1] was 0.1 to 1000 nM.

As to `NCc1cccc(C2CCN(C(=O)CCc3ccc(O)c(O)c3)CC2)c1` [T24Dihydro, 1-(4-(3-(aminomethyl)phenyl)piperidin-1-yl)-3-(3,4-dihydroxyphenyl)propan-1-one (TFA salt)], under setting [1], the IC50 was in the range of 1000 to 10000 nM.

For `C[C@]1(O)CN(c2cccc(C(=O)N3CCC(c4cccc(CN)c4)CC3)c2)C(=O)[C@H]1O` [CMI9321, 1-{3-[4-(3-aminomethyl-phenyl)-piperidine-1-carbonyl]-phenyl}-3,4-dihydroxy-4-methyl-pyrrolidin-2-one hydrochloride], the IC50 under setting [3] lay within 0.1 to 1000 nM.

Take `NCc1cccc(C2CCN(C(=O)c3ccc4ccn(CC(O)(C(=O)O)c5ccccc5)c4c3)CC2)c1` (centres unmarked) [T84, 3-(6-(4-(3-(aminomethyl)phenyl)piperidine-1-carbonyl)-1H-indol-1-yl)-2-hydroxy-2-phenylpropanoic acid]: the IC50 is, setting by setting: under setting [2], 0.1 to 1000 nM; under setting [3], 0.1 to 1000 nM.

As to `NCc1cccc(C2CCN(C(=O)/C=C/c3ccc(B(O)O)cc3)CC2)c1` [T33, (E)-4-(3-(4-(3-(aminomethyl)phenyl)piperidin-1-yl)-3-oxoprop-1-enyl)phenylboronic acid], the IC50 fell in the range of 1000 to 10000 nM under setting [2] and 1000 to 10000 nM under setting [1].

On to `NCc1cccc(C2CCN(C(=O)Cc3ccc(B(O)O)c(F)c3)CC2)c1` [T54BA], for which the IC50 under setting [1] lay within 1000 to 10000 nM.
